# Measured values published in BindingDB's records for doi:10.1111/cbdd.12324 (Y.B. Chavan College of Pharmacy, 2014).
# Key:
# [1] = target: T1, Prostaglandin G/H synthase 1 (Ovis aries, UniProt P05979); experiment: Cyclooxygenase (COX) Inhibition Assay; conditions: 37 °C
# T1 sequence (P05979 whole entry): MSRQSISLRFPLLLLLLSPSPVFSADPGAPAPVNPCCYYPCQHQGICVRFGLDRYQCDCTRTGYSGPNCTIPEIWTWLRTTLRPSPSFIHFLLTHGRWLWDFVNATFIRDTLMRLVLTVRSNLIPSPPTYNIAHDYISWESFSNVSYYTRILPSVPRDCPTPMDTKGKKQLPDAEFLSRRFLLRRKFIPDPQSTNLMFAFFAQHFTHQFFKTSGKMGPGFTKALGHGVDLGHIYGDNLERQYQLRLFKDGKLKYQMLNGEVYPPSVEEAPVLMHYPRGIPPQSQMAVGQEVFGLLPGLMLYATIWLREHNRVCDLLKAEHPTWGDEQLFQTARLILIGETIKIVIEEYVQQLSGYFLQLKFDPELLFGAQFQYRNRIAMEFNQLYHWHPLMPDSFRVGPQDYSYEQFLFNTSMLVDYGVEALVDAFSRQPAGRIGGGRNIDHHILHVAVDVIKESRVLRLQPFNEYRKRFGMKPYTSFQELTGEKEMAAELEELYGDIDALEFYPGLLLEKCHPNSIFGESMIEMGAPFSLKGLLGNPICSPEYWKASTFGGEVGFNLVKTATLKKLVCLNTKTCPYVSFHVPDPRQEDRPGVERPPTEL
# Procedure: (§1) The COX-1/COX-2 inhibition assay was done using an enzyme immunoassay (EIA) kit. The reaction buffer (960 uL), containing 0.1 M Tris-HCl (pH 8.0), 5 mM EDTA and 2 mM phenol, with either COX-1 or COX-2 (10 uL) enzyme in the presence of heme (10 uL) was added 10 uL of various concentrations of test drug solutions (0.01, 0.1, 1, 10, 50, and 100 uM in a final volume of 1 mL). The reaction was incubated for 5 min at 37 uC, followed by the addition of 10 uL of AA (100 uM) solution. The reaction was stopped by the addition of 50 uL of 1M HCl after 2 min.
# [2] = target: T2, Prostaglandin G/H synthase 2 (Ovis aries, UniProt P79208); experiment: Cyclooxygenase (COX) Inhibition Assay; conditions: 37 °C
# T2 sequence (P79208 whole entry): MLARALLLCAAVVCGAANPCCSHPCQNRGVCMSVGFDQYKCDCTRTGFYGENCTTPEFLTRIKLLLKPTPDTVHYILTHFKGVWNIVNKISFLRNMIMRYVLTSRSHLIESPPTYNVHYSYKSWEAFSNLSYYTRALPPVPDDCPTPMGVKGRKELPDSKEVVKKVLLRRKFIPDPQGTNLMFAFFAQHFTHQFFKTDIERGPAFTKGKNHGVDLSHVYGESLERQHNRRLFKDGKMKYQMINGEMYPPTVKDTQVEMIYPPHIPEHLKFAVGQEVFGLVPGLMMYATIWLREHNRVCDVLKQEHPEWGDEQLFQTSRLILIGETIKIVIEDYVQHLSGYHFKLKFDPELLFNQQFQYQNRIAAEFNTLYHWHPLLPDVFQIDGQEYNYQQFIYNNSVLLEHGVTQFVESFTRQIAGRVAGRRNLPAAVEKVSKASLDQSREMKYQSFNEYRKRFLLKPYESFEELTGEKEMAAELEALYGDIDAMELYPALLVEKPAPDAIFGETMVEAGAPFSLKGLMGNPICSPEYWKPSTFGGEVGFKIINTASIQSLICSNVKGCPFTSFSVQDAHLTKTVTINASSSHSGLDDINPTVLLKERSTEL
# Procedure: as §1
IC50 [1],IC50 [2],Structure (SMILES)
> 100 µM,35 µM,Cc1cc(=O)n(-c2ccccc2)[nH]1 [MLS000069602]
80 µM,0.2 µM,"Cc1[nH]n(-c2ccccc2)c(=O)c1CNC(=S)Nc1ccccc1 [1-[(3-methyl-5-oxo-1-phenyl-4,5-dihydro-1H-pyrazol-4-yl)methyl]-3-phenylthiourea (5d)]"
> 100 µM,2.3 µM,"Cc1[nH]n(-c2ccccc2)c(=O)c1CNC(N)=O [1-[(3-methyl-5-oxo-1-phenyl-4,5-dihydro-1H-pyrazol-4-yl)methyl]urea (5a)]"
> 100 µM,> 100 µM,"Cc1[nH]n(-c2ccccc2)c(=O)c1CNC(=O)Nc1ccc(Cl)cc1 [1-(4-chlorophenyl)-3-[(3-methyl-5-oxo-1-phenyl-4,5-dihydro-1H-pyrazol-4-yl)methyl]urea (5b)]"
> 100 µM,1 µM,"Cc1[nH]n(-c2ccccc2)c(=O)c1CNc1ccc(S(N)(=O)=O)cc1 [4-{[(3-methyl-5-oxo-1-phenyl-4,5-dihydro-1H-pyrazol-4-yl)methyl]amino} benzene sulfonamide (5f)]"
> 100 µM,85 µM,"Cc1[nH]n(-c2ccccc2)c(=O)c1CNC(N)=S [1-[(3-methyl-5-oxo-1-phenyl-4,5-dihydro-1H-pyrazol-4-yl)methyl]thiourea (5c)]"
> 100 µM,> 100 µM,"Cc1[nH]n(-c2ccccc2)c(=O)c1CNC(=O)NN [N-[(3-methyl-5-oxo-1-phenyl-4,5-dihydro-1H-pyrazol-4yl)methyl] hydrazine carboxamide (5g)]"
> 100 µM,50.7 µM,"Cc1[nH]n(-c2ccccc2)c(=O)c1CN=C(N)N [1-((3-methyl-5-oxo-1-phenyl-4,5-dihydro-1H-pyrazol-4-yl)methyl)guanidine (5e)]"
